Source: ChEMBL document CHEMBL2150974 (J Med Chem, 2012)
The source made the active and inactive calls. No cut-off for these calls is given here.

Key:
[1] = target: Serine/threonine-protein kinase N1 (Homo sapiens) (UniProt Q16512); experiment: Inhibition of PRK1 at 10 uM
[2] = target: Hepatocyte growth factor receptor (Homo sapiens) (UniProt P08581); experiment: Inhibition of MET at 10 uM
[3] = target: T1, Mitogen-activated protein kinase 14 (Homo sapiens, UniProt Q16539); experiment: Inhibition of p38alpha by immunosorbent based kinase assay
[4] = target: Focal adhesion kinase 1 (Homo sapiens) (UniProt Q05397); experiment: Inhibition of FAK at 10 uM
[5] = target: T2, NUAK family SNF1-like kinase 1 (Homo sapiens) (UniProt O60285); experiment: Inhibition of ARK5 at 10 uM
T2 sequence (whole entry): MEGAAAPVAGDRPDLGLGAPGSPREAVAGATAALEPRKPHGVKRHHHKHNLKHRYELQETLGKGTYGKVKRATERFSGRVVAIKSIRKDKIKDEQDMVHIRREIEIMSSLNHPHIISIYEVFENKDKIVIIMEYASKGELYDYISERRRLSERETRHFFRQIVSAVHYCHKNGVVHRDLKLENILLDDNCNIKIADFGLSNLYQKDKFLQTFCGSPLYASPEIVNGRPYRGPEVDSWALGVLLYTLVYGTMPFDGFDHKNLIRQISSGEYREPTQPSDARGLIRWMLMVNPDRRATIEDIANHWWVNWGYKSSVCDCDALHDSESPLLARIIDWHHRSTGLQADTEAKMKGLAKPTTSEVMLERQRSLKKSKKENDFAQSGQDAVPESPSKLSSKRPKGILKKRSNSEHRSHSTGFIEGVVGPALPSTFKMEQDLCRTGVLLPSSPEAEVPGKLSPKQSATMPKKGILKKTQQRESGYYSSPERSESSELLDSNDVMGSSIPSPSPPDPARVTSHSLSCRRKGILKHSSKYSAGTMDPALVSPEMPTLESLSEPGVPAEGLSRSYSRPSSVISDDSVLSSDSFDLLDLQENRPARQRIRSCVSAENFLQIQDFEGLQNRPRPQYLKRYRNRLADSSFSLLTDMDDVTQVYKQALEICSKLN

[6] = target: Vascular endothelial growth factor receptor 2 (Homo sapiens) (UniProt P35968); experiment: Inhibition of VEGFR2 at 10 uM
Chain of Vascular endothelial growth factor receptor 2 (Homo sapiens) (P35968 whole entry): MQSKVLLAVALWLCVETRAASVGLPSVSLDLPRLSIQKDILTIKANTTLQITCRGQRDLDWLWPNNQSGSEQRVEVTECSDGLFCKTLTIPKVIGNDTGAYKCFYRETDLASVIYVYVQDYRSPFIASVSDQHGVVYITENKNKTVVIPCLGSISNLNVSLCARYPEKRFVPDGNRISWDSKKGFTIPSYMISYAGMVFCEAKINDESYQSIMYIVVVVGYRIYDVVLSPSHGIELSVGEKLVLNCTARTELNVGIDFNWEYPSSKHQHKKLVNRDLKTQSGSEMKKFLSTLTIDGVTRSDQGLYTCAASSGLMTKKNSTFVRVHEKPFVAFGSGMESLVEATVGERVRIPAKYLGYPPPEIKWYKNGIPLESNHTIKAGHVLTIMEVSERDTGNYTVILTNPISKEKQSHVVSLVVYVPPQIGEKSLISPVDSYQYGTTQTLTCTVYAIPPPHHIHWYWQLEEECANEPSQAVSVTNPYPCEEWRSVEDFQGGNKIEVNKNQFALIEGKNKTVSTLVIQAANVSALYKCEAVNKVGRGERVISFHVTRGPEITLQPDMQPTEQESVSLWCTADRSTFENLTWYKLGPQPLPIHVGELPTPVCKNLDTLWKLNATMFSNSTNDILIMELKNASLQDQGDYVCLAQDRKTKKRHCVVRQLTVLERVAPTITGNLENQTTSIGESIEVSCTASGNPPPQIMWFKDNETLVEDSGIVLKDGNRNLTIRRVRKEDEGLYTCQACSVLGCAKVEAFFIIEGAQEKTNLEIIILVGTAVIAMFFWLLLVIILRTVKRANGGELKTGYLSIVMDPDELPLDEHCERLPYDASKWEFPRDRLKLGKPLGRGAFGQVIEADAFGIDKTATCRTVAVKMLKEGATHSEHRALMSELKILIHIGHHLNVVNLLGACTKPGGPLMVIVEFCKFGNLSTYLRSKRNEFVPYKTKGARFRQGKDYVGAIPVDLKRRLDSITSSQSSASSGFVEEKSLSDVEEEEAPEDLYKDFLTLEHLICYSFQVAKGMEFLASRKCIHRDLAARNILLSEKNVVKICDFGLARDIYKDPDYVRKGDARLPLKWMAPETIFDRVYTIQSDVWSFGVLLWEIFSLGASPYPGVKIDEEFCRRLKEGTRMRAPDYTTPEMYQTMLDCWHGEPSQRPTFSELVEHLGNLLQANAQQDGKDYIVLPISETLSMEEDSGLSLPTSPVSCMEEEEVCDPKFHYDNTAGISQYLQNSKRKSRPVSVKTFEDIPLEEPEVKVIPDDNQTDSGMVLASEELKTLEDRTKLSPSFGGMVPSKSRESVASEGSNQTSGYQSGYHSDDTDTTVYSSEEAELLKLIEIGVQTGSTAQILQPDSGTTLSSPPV

[7] = system: Serine/threonine-protein kinase B-raf (Homo sapiens), P15056 [V600E]; experiment: Inhibition of BRAF V600E mutant at 10 uM
Chain of Serine/threonine-protein kinase B-raf (Homo sapiens), P15056 [V600E] (P15056 whole entry V600E): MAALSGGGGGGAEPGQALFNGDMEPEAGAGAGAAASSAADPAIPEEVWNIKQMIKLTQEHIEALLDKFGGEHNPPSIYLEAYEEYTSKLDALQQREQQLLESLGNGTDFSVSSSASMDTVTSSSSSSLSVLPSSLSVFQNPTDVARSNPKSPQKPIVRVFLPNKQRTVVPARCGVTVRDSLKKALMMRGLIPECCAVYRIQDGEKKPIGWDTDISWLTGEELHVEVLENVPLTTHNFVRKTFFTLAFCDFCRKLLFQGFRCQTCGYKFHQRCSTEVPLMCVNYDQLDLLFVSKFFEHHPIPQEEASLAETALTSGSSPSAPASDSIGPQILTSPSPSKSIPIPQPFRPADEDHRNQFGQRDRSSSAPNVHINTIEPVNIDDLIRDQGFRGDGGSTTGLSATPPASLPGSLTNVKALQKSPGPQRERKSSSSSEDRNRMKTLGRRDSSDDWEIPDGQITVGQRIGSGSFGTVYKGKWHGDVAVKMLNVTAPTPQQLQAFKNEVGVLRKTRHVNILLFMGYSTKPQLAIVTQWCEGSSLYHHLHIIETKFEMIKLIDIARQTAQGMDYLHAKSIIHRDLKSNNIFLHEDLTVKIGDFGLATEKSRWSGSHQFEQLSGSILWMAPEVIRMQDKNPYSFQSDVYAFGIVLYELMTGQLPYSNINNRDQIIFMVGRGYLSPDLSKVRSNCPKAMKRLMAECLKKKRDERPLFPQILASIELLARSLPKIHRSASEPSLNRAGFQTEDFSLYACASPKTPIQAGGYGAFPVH

[8] = target: Proto-oncogene tyrosine-protein kinase Src (Homo sapiens) (UniProt P12931); experiment: Inhibition of SRC at 10 uM
[9] = target: Tyrosine-protein kinase receptor UFO (Homo sapiens) (UniProt P30530); experiment: Inhibition of AXL at 10 uM
[10] = target: Insulin receptor (Homo sapiens) (UniProt P06213); experiment: Inhibition of INSR at 10 uM
Chain of Insulin receptor (Homo sapiens) (P06213 28-758 limits assumed): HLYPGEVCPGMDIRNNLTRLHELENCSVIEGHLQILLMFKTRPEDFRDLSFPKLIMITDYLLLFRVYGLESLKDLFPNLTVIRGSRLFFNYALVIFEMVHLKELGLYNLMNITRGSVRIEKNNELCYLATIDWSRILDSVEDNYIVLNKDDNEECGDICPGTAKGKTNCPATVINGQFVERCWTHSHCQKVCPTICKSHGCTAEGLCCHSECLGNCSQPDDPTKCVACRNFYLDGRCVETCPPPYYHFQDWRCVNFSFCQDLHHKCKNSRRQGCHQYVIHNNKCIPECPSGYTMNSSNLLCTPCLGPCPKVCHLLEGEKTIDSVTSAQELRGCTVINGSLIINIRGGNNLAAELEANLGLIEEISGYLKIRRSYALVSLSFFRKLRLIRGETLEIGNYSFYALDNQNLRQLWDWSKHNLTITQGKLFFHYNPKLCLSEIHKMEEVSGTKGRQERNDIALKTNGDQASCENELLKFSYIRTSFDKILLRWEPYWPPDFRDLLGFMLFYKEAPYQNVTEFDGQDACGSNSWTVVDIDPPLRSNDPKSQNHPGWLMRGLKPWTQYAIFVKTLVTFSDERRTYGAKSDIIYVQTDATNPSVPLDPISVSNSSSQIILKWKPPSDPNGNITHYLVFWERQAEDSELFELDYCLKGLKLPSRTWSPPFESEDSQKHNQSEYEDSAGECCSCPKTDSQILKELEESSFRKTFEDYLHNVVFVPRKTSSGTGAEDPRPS
Chain of Insulin receptor (Homo sapiens) (P06213 763-1382 limits assumed): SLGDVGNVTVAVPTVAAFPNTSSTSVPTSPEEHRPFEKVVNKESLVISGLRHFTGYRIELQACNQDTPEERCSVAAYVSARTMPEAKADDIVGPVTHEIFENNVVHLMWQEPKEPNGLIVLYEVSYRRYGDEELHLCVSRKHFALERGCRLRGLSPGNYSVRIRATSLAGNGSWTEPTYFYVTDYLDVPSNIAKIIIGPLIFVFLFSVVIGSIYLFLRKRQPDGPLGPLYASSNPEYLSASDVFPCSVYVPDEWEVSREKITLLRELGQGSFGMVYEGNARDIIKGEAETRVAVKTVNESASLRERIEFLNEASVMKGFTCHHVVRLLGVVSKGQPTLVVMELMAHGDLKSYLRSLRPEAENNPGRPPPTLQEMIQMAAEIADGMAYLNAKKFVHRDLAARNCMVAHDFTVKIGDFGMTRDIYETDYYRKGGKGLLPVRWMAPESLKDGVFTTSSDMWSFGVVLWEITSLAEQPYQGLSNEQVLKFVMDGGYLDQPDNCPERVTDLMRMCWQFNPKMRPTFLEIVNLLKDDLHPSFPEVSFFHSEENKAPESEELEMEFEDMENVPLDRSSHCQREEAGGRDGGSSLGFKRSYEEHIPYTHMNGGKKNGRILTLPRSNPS

[11] = target: Serine/threonine-protein kinase PLK1 (Homo sapiens) (UniProt P53350); experiment: Inhibition of PLK1 at 10 uM
[12] = target: T1, Mitogen-activated protein kinase 14; experiment: Inhibition of p38alpha-dependent TNFalpha production in human whole blood
[13] = target: T3, Serine/threonine-protein kinase PLK4 (Homo sapiens) (UniProt O00444); experiment: Inhibition of SAK at 10 uM
T3 sequence (whole entry): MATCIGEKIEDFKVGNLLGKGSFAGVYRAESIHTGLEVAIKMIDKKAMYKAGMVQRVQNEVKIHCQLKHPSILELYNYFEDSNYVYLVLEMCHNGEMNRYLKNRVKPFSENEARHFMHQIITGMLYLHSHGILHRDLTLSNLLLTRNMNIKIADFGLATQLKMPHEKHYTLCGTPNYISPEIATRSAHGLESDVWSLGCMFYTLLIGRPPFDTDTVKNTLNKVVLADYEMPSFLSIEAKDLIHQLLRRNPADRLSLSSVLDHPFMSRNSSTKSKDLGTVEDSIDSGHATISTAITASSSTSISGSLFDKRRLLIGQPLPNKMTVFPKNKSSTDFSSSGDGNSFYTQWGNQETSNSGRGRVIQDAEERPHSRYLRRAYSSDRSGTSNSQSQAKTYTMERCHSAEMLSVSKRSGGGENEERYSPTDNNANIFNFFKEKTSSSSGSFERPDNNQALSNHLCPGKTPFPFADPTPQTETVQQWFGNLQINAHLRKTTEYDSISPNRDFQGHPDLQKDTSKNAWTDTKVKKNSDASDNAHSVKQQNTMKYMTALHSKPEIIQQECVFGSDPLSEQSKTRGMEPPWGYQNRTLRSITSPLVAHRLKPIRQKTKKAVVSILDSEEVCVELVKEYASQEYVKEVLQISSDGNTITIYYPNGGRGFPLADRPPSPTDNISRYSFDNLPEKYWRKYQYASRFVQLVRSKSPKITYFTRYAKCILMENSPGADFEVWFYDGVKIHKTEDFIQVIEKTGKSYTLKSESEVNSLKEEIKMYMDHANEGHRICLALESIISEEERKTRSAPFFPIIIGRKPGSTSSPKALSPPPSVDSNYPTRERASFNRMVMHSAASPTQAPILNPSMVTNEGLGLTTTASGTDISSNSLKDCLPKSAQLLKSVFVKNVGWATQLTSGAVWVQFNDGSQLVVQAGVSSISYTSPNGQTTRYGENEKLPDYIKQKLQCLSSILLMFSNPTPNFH

[14] = target: Aurora kinase B (Homo sapiens) (UniProt Q96GD4); experiment: Inhibition of AuroraB at 10 uM
[15] = target: RAC-alpha serine/threonine-protein kinase (Homo sapiens) (UniProt P31749); experiment: Inhibition of AKT1 at 10 uM
Chain of RAC-alpha serine/threonine-protein kinase (Homo sapiens) (P31749 whole entry): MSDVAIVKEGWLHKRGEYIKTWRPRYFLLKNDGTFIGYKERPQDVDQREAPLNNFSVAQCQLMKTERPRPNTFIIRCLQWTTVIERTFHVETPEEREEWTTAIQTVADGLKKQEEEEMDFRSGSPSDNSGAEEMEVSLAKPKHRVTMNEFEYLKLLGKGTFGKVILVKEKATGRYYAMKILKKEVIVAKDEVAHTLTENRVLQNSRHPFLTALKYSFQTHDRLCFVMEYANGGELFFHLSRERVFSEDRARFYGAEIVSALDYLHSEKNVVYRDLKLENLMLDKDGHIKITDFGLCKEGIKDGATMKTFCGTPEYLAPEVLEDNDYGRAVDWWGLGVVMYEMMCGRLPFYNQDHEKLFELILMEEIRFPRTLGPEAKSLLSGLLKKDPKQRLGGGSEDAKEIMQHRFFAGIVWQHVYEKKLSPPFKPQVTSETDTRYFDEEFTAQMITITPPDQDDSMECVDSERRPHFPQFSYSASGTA

[16] = target: Casein kinase II subunit alpha (Homo sapiens) (UniProt P68400); experiment: Inhibition of CK2alpha1 at 10 uM
[17] = target: Insulin-like growth factor 1 receptor (Homo sapiens) (UniProt P08069); experiment: Inhibition of IGF1R at 10 uM
[18] = target: BDNF/NT-3 growth factors receptor (Homo sapiens) (UniProt Q16620); experiment: Inhibition of TRKB at 10 uM
Chain of BDNF/NT-3 growth factors receptor (Homo sapiens) (Q16620 32-822 limits assumed): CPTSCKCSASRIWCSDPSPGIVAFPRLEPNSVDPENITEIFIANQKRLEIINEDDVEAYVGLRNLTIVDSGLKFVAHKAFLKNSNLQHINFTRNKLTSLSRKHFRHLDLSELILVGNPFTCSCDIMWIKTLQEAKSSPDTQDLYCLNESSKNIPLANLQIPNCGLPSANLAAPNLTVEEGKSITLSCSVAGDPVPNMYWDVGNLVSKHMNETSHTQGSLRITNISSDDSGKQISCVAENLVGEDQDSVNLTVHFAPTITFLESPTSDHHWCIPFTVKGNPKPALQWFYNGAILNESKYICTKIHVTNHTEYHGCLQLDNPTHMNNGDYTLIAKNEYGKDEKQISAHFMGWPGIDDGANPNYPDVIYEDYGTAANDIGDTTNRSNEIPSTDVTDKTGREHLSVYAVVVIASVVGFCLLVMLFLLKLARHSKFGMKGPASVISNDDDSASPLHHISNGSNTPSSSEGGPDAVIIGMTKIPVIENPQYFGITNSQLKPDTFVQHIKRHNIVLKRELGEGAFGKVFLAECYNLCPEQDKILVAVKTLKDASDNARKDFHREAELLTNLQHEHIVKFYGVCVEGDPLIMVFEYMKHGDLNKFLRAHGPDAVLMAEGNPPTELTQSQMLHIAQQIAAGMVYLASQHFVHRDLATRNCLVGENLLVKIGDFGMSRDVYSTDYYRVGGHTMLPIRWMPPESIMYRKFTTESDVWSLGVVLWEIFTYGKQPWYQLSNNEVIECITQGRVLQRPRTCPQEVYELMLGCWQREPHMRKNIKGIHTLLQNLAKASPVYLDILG

| Structure (SMILES) | inhibition [1] | inhibition [2] | IC50 [3] | inhibition [4] | inhibition [5] | inhibition [6] | inhibition [7] | inhibition [8] | inhibition [9] | inhibition [10] | inhibition [11] | IC50 [12] | inhibition [13] | inhibition [14] | inhibition [15] | inhibition [16] | inhibition [17] | inhibition [18] |
| --- | --- | --- | --- | --- | --- | --- | --- | --- | --- | --- | --- | --- | --- | --- | --- | --- | --- | --- |
| O=C1c2ccc(Nc3ccc(F)cc3F)cc2CCc2ccc(OC3CCOCC3)cc21 | inactive | inactive | 60 nM | inactive | inactive | inactive | inactive | inactive | inactive | inactive | inactive | 530 nM | inactive | inactive | inactive | inactive | inactive | inactive |
| O=C1c2ccc(Nc3ccc(F)cc3F)cc2CCc2ccc(OCCO)cc21 | inactive | inactive | 10 nM | inactive | inactive | inactive | inactive | inactive | inactive | inactive | inactive | 480 nM | inactive | inactive | inactive | inactive | inactive | inactive |
| CC1(C)OC[C@H](COc2ccc3c(c2)C(=O)c2ccc(Nc4ccccc4N)cc2CC3)O1 | inactive | inactive | 30 nM | inactive | inactive | inactive | inactive | inactive | inactive | inactive | inactive | 190 nM | inactive | inactive | inactive | inactive | inactive | inactive |
| COc1ccc2c(c1)C(=O)c1ccc(Nc3ccccc3C(F)(F)F)cc1CC2 | inactive | inactive | 400 nM | inactive | inactive | inactive | inactive | inactive | inactive | inactive | inactive | 33600 nM | inactive | inactive | inactive | inactive | inactive | inactive |
| O=C1c2ccc(Nc3ccc(F)cc3F)cc2CCc2c(OCCN3CCOCC3)cccc21 | inactive | inactive | 30 nM | inactive | inactive | inactive | inactive | inactive | inactive | inactive | inactive | 200000 nM | inactive | inactive | inactive | inactive | inactive | inactive |

The next lines start with the values.

| inhibition [1] | inhibition [2] | IC50 [3] | inhibition [4] | inhibition [5] | inhibition [6] | inhibition [7] | inhibition [8] | inhibition [9] | inhibition [10] | inhibition [11] | IC50 [12] | inhibition [13] | inhibition [14] | inhibition [15] | inhibition [16] | inhibition [17] | inhibition [18] | Structure (SMILES) |
| --- | --- | --- | --- | --- | --- | --- | --- | --- | --- | --- | --- | --- | --- | --- | --- | --- | --- | --- |
| inactive | inactive | 5 nM | inactive | inactive | inactive | inactive | inactive | inactive | inactive | inactive | 5200 nM | inactive | inactive | inactive | inactive | inactive | inactive | O=C1c2ccc(Nc3ccc(F)cc3F)cc2CCc2cc(OC[C@@H](O)CO)ccc21 |
| inactive | inactive | 50 nM | inactive | inactive | inactive | inactive | inactive | inactive | inactive | inactive | 4300 nM | inactive | inactive | inactive | inactive | inactive | inactive | COc1ccc2c(c1)C(=O)c1ccc(Nc3cc(F)cc(F)c3F)cc1CC2 |
| inactive | inactive | 20 nM | inactive | inactive | inactive | inactive | inactive | inactive | inactive | inactive | 100000 nM | inactive | inactive | inactive | inactive | inactive | inactive | O=C1c2ccc(Nc3ccc(F)cc3F)cc2CCc2c(OC[C@H](O)CO)cccc21 |
| inactive | inactive | 20 nM | inactive | inactive | inactive | inactive | inactive | inactive | inactive | inactive | 230 nM | inactive | inactive | inactive | inactive | inactive | inactive | CC1(C)OC[C@H](COc2ccc3c(c2)C(=O)c2ccc(Nc4ccc(F)cc4F)cc2CC3)O1 |
